In patent US11273217B2, “Cancer treatment composition combining anti-CD26 antibody and other anticancer agent” (Y's AC Co., Ltd., priority 2015, dated 2022):

Assays:
MESO1 cells = assay: In vivo MESO1 cell growth in SCID mice (tumor weight); conditions: YS110 10 mg/kg, cisplatin 0.5 mg/kg, pemetrexed 50 mg/kg, intraperitoneal, days 1 and 4; tumor weight day 7
Protocol: MESO1 cells (3×10^5 cells/animal) were subcutaneously transplanted to the backs of female SCID mice. The day of transplantation was defined as day 0. YS110 (10 mg/kg) alone, cisplatin (0.5 mg/kg)-pemetrexed (50 mg/kg) used concomitantly, or YS110 (10 mg/kg) concomitantly used with the cisplatin-pemetrexed concomitant use was intraperitoneally administered to the mice twice (days 1 and 4). At day 7, their tumors were excised, and the tumor weights were measured. Significant difference was tested by two-tailed t-test (vs Cont).

[1] = system: CD26-positive malignant mesothelioma cell line JMN; conditions: mouse, in vivo
Protocol: NOD/SCID (NOD/LtSz-scid) mice were maintained in a microisolator cage within a specific pathogen-free (SPF) facility and allowed to freely take sterilized diet and sterilized water.
1×10^7 cultured JMN cells were subcutaneously administered to 6- to 8-week-old female NOD/SCID mice. […] The same amount of PBS was administered to the control group. When a tumor became evidently visible, the tumor was excised, and its size was measured with a vernier caliper. The estimated tumor volume was determined by calculation according to the expression: π/6×L×W×W (Tomayko M M et al., Cancer Chemother Pharmacol. (1989) 24: 148-54). The statistical difference among the average tumor volumes of these groups were determined by Fisher's protected least-square differences (PLSD) multiple comparison test. Statistical analysis was conducted using SPSS software (IBM, Armonk, N.Y.).

H226 cells = assay: MTT cell growth assay, H226; format: cell-based; conditions: gemcitabine 10^−8, 3×10^−8, or 10^−7 M and YS110 1, 3, or 10 μg/ml; day 2
Protocol: (§1) Gemcitabine was studied for its effect on the growth of a mesothelioma cell line. A mesothelioma cell line MESO1, JMN, H2452, or H226 (2×10^3 cells/well) was inoculated to a 96-well plate. One hour later, gemcitabine (10^−9, 10^−8, 10^−7, 10^−6, 10^−5, or 10^−4 M) was added thereto (N=6). 2 days later, MTT assay was conducted. Significant difference was tested by two-tailed t-test (vs Cont).
(§2) H226 cells (2×10^3 cells/well) were inoculated to a 96-well plate. One hour later, gemcitabine (0, 10^−8, 3×10^−8, or 10^−7 M) and YS110 (0, 1, 3, or 10 μg/ml) were added thereto in combination. At day 2, MTT assay was conducted. Significant difference was tested by two-tailed t-test (vs Cont). Next, interaction in concomitant use of medications was studied (n=6). The interaction between YS110 and gemcitabine used concomitantly was analyzed by two-way ANOVA.
(§3) MESO1, JMN, H2452 or H226 cells (2×10^3 cells/well were inoculated to a 96-well plate. One hour later, 3×10^−8 M or 10^−7 M gemcitabine was added thereto by concomitant use with the combination of cisplatin (0, 0.1, 0.3, or 1 μM) and pemetrexed (0, 0.03, 0.1, or 0.3 μM) (n=6). At day 2, MTT assay was conducted.
(§4) The growth inhibitory effect of gemcitabine (10^−9 to 10^−4 M) was compared using MESO1, H2452, JMN, and H226 cell lines.

H2452 cells [2] = assay: MTT cell growth assay, H2452; format: cell-based; conditions: day 2
Protocol: MESO1 or H2452 cells (2×10^3 cells/well) were inoculated to a 96-well plate. One hour later, cisplatin or pemetrexed was added thereto at 10^−9, 10^−8, 10^−7, 10^−6, 10^−5, or 10^−4 M (n=6). At day 2, MTT assay was conducted.
H2452 cells (2×10^3 cells/well) were inoculated to a 96-well plate. One hour later, the combination of 0.03, 0.3, or 1 μM cisplatin and 0.1, 3, or 10 μg/ml YS110, or the combination of 0.01, 0.1, or 0.3 μM pemetrexed and 0.1, 3, or 10 μg/ml YS110 was added thereto (n=6). At day 2, MTT assay was conducted. Significant difference was tested by two-tailed t-test (vs Cont).
MESO1 cells (2×10^3 cells/well) or H2452 cells (2×10^3 cells/well) were inoculated to a 96-well plate. One hour later, 0.3 μM cisplatin-0.1 μM pemetrexed combination, or YS110 (10 μg/ml) plus the 0.3 μM cisplatin-0.1 μM pemetrexed combination was added thereto (n=6). At day 2, MTT assay was conducted. Significant difference was tested by two-tailed t-test (vs Cont).
as §1
as §2, with “H2452” for “H226”
as §3, §4

H2452 cells [3] = assay: In vivo H2452 cell growth in SCID mice (tumor weight); conditions: YS110 10 mg/kg, cisplatin 0.5 mg/kg, pemetrexed 50 mg/kg, intraperitoneal, days 1 and 4; tumor weight day 7
Protocol: H2452 cells (3×10^5 cells/animal) were subcutaneously transplanted to the backs of female SCID mice. The day of transplantation was defined as day 0. YS110 (10 mg/kg) alone, cisplatin (0.5 mg/kg)-pemetrexed (50 mg/kg) used concomitantly, or YS110 (10 mg/kg) used concomitantly with the cisplatin-pemetrexed concomitant use was intraperitoneally administered to the mice twice (days 1 and 4). At day 7, their tumors were excised, and the tumor weights were measured. Significant difference was tested by two-tailed t-test (vs Cont).

JMN cells = assay: In vivo JMN cell growth in SCID mice (tumor weight); conditions: YS110 10 mg/kg, intraperitoneal
H2452 cells [4] = assay: Boyden chamber invasion assay, H2452; format: cell-based; conditions: cisplatin 0, 3, or 10 μM and YS110 0, 10, or 20 μg/ml; 24 hours
Protocol: MESO1 cells or H2452 cells (2.5×10^4 cells/well) were inoculated to a Boyden chamber. One hour later, cisplatin (5, 10, or 30 μM) or pemetrexed (1, 10, or 30 μM) was added thereto (n=5), followed by Boyden chamber invasion assay. 24 hours after the cell inoculation, invasive cells were stained with Diff-Quik-staining kit. Significant difference was tested by two-tailed t-test (vs Cont).
(§5) MESO1 cells or H2452 cells (2.5×10^4 cells/well) were inoculated to a Boyden chamber. One hour later, the combination of cisplatin (0, 3, or 10 μM) and pemetrexed (0, 10, or 30 μM) was added thereto (n=5), followed by Boyden chamber invasion assay. 24 hours after the cell inoculation, invasive cells were stained with Diff-Quik-staining kit. Significant difference was tested by two-tailed t-test (vs Cont).
as §5, with “H2452” for “MESO1 cells or H2452”, “YS110” for “pemetrexed”, “20 μg/ml)” for “30 μM)”, “Cont). Next, the interaction of YS110 with cisplatin-pemetrexed concomitant use was studied. The interaction was analyzed by two-way ANOVA.” for “Cont).”

YS110: humanized anti-CD26 antibody designed based on anti-CD26 mouse antibody 14D10; SEQ ID NO: 17 and 18
effect of YS110 on the in vivo tumor growth inhibitory effect of cisplatin-pemetrexed (MESO1 cells): potentiated
average body weight of the mice compared among the groups [1]: did not remarkably differ
effect of YS110 on the growth inhibitory effect of gemcitabine (H226 cells): potentiated
effect of YS110 on the cell growth inhibitory effect of pemetrexed (H2452 cells [2]; 0.01, 0.1, or 0.3 μM pemetrexed and 0.1, 3, or 10 μg/ml YS110): potentiated
effect of YS110 on the cell growth inhibitory effect of cisplatin (H2452 cells [2]; 0.03, 0.3, or 1 μM cisplatin and 0.1, 3, or 10 μg/ml YS110): potentiated
effect of YS110 on the cell growth inhibitory effect of cisplatin-pemetrexed (H2452 cells [2]; YS110 10 μg/ml plus 0.3 μM cisplatin-0.1 μM pemetrexed): potentiated
effect of YS110 on the growth inhibitory effect of gemcitabine (H2452 cells [2]; gemcitabine 10^−8, 3×10^−8, or 10^−7 M and YS110 1, 3, or 10 μg/ml): potentiated
effect of YS110 on the in vivo tumor growth inhibitory effect of cisplatin-pemetrexed (H2452 cells [3]): potentiated
effect of YS110 on the in vivo tumor growth inhibitory effect of cisplatin (JMN cells; cisplatin 0.5 mg/kg, days 1 and 4, tumor weight day 7): potentiated
effect of YS110 on the in vivo tumor growth inhibitory effect of cisplatin-pemetrexed (JMN cells; cisplatin 0.5 mg/kg, pemetrexed 50 mg/kg, days 1 and 4, tumor weight day 7): potentiated
inhibitory effect (tumor weight) (JMN cells; gemcitabine 10 mg/kg, days 2 and 4, day 7): 34%
effect of YS110 on the in vivo tumor growth inhibitory effect of pemetrexed (JMN cells; pemetrexed 50 mg/kg, days 1 and 4, tumor weight day 7): potentiated
effect of YS110 on the cell invasion inhibitory action of cisplatin-pemetrexed (H2452 cells [4]): synergistically potentiated
